# From patent publication US10092575B2, “Substituted thiophene- and furan-fused azolopyrimidine-5-(6H)-one compounds” (DART NEUROSCIENCE (CAYMAN) LTD., priority 2012, dated 2018)
# Target: human PDE1b enzyme (Homo sapiens (Human), UniProt Q01064)
# Experiment: PDE1b inhibitory assay (IMAP TR-FRET)
# Settings: not given
row,SMILES,EC50
1,"COc1ccc(Cn2c(=O)n3ncnc3c3cc(-c4c(C)noc4C)sc32)cc1 [Example 42, 8-(3,5-Dimethylisoxazol-4-yl)-6-(4-methoxybenzyl)thieno[3,2-e][1,2,4]triazolo[1,5-c]pyrimidin-5(6H)-one]",100 to 1000 nM
2,"COc1ccc(Cn2c(=O)n3ncnc3c3c(C)c(CN4CCCC4)sc32)cc1 [Example 43, 6-(4-Methoxybenzyl)-9-methyl-8-(pyrrolidin-1-ylmethyl)thieno[3,2-e][1,2,4]triazolo[1,5-c]pyrimidin-5(6H)-one]",100 to 1000 nM
3,"COc1ccc(Cn2c(=O)n3ncnc3c3c(C)c(CN4CCNCC4)sc32)cc1 [Example 49, 6-(4-Methoxybenzyl)-9-methyl-8-(piperazin-1-ylmethyl)thieno[3,2-e][1,2,4]triazolo[1,5-c]pyrimidin-5(6H)-one]",100 to 1000 nM

# Same assay, conditions: negative log of half-maximal molar inhibitory concentration; 200 nM FAM-cAMP; reported as ranges
row,SMILES,PDE1b (pEC50)
1,"COc1ccc(Cn2c(=O)n3ncnc3c3cc(CN4CCN5C(=O)OCC5C4)sc32)cc1 (stereo not shown) [Example 40, 7-((6-(4-Methoxybenzyl)-5-oxo-5,6-dihydrothieno[3,2-e][1,2,4]triazolo[1,5-c]pyrimidin-8-yl)methyl)tetrahydro-1H-oxazolo[3,4-a]pyrazin-3(5H)-one]",>7
2,"COc1ccc(Cn2c(=O)n3ncnc3c3cc(-c4cc(C(F)(F)F)nn4C)sc32)cc1 [Example 41, 6-(4-Methoxybenzyl)-8-(1-methyl-3-(trifluoromethyl)-1H-pyrazol-5-yl)thieno[3,2-e][1,2,4]triazolo[1,5-c]pyrimidin-5(6H)-one]",>7
3,"COc1ccc(Cn2c(=O)n3ncnc3c3c(C)c(CN4CCOCC4)sc32)cc1 [Example 44, 6-(4-Methoxybenzyl)-9-methyl-8-(morpholinomethyl)thieno[3,2-e][1,2,4]triazolo[1,5-c]pyrimidin-5(6H)-one]",>7
4,"COc1ccc(Cn2c(=O)n3ncnc3c3c(C)c(CN(C)C)sc32)cc1 [Example 45, 8-((Dimethylamino)methyl)-6-(4-methoxybenzyl)-9-methylthieno[3,2-e][1,2,4]triazolo[1,5-c]pyrimidin-5(6H)-one]",>7
5,"COc1ccc(Cn2c(=O)n3ncnc3c3c(C)c(CN(C)C4CC4)sc32)cc1 [Example 46, 8-((Cyclopropyl(methyl)amino)methyl)-6-(4-methoxybenzyl)-9-methylthieno[3,2-e][1,2,4]triazolo[1,5-c]pyrimidin-5(6H)-one]",>7
6,"COc1ccc(Cn2c(=O)n3ncnc3c3c(C)c(CN4CCC(O)CC4)sc32)cc1 [Example 47, 8-((4-Hydroxypiperidin-1-yl)methyl)-6-(4-methoxybenzyl)-9-methylthieno[3,2-e][1,2,4]triazolo[1,5-c]pyrimidin-5(6H)-one]",>7
7,"COc1ccc(Cn2c(=O)n3ncnc3c3c(C)c(CN(CCO)Cc4ccccc4)sc32)cc1 [Example 48, 8-((Benzyl(2-hydroxyethyl)amino)methyl)-6-(4-methoxybenzyl)-9-methylthieno[3,2-e][1,2,4]triazolo[1,5-c]pyrimidin-5(6H)-one]",>7
8,"COc1ccc(Cn2c(=O)n3ncnc3c3c(C)c(CNCC4(C)COC4)sc32)cc1 [Example 50, 6-(4-Methoxybenzyl)-9-methyl-8-((((3-methyloxetan-3-yl)methyl)amino)methyl)thieno[3,2-e][1,2,4]triazolo[1,5-c]pyrimidin-5(6H)-one]",>7
9,"COc1ccc(Cn2c(=O)n3ncnc3c3c(C)c(CN4CCN(C(C)=O)CC4)sc32)cc1 [Example 51, 8-((4-Acetylpiperazin-1-yl)methyl)-6-(4-methoxybenzyl)-9-methylthieno[3,2-e][1,2,4]triazolo[1,5-c]pyrimidin-5(6H)-one]",>7
10,"COc1ccc(Cn2c(=O)n3ncnc3c3c(C)c(CNCc4cccnc4)sc32)cc1 [Example 52, 6-(4-Methoxybenzyl)-9-methyl-8-(((pyridin-3-ylmethyl)amino)methyl)thieno[3,2-e][1,2,4]triazolo[1,5-c]pyrimidin-5(6H)-one]",>7
